These results are taken from ChEMBL document CHEMBL2380215, “Development of cyclic peptomer inhibitors targeting the polo-box domain of polo-like kinase 1” (Bioorg Med Chem, 2013).

Activity calls are given as the source filed them. The calls are words filed in the database; no cut-off is given here.

The target of assay [1] is Serine/threonine-protein kinase PLK2 (Homo sapiens) (UniProt Q9NYY3). The assay is described as follows: Inhibition of Plk2 polo-box domain (unknown origin) assessed as inhibition of 5-carboxyfluorescein-Ahx-GPMQTS-pT-PKNG binding after 10 mins by fluorescence polarization assay. A general note: In fluorescence polarisation assays a small probe gives low polarisation when free and higher when bound to something large.

Assay [2] addresses Serine/threonine-protein kinase PLK3 (Homo sapiens) (UniProt Q9H4B4). Nature of the assay: Inhibition of Plk3 polo-box domain (unknown origin) assessed as inhibition of 5-carboxyfluorescein-Ahx-GPLATS-pT-PKNG binding after 10 mins by fluorescence polarization assay.
In assay [3] the target is Serine/threonine-protein kinase PLK1 (Homo sapiens) (UniProt P53350). Nature of the assay: Inhibition of HA-EGFP tagged Plk1 polo-box domain (unknown origin) expressed in 293A cells assessed as inhibition of biotin-p-T78 binding up to 150 uM after 1 hr by ELISA. It is filed as cell-based. (ELISA stands for enzyme-linked immunosorbent assay.)
Serine/threonine-protein kinase PLK1 (Homo sapiens), sequence (P53350 whole entry, the tested form may be a part): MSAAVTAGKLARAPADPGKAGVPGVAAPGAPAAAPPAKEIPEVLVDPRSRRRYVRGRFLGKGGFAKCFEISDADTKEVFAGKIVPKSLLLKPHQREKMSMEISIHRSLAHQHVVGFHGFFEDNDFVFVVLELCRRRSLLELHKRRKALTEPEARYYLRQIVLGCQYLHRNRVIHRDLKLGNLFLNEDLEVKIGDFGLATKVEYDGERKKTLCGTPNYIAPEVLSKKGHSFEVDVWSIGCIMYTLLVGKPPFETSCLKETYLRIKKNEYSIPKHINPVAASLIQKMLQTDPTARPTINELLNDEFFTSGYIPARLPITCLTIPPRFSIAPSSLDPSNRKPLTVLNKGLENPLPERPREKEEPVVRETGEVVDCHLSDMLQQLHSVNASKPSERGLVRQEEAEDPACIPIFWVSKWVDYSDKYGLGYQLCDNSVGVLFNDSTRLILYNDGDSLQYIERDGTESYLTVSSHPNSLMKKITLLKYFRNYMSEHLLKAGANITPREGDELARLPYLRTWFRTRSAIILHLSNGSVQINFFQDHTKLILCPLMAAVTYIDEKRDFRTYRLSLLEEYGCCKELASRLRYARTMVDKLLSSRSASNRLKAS

Serine/threonine-protein kinase PLK3 (Homo sapiens), sequence (Q9H4B4 whole entry, looked up, the tested form may be a part): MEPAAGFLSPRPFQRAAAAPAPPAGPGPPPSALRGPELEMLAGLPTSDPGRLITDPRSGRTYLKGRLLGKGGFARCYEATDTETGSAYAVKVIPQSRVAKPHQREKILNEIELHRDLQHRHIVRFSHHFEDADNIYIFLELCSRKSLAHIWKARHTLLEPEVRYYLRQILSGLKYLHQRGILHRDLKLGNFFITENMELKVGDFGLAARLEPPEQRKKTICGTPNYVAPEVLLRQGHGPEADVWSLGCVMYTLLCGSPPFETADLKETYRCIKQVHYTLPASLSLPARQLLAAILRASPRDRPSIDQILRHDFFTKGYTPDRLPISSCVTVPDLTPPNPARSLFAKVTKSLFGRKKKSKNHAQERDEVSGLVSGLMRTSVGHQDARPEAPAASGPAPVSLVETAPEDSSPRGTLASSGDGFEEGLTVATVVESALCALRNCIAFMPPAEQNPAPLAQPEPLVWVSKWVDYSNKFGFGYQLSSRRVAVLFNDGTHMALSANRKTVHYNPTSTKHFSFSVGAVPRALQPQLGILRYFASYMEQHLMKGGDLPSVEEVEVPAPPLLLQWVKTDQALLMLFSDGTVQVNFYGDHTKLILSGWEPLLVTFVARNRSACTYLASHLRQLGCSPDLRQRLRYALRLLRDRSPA
Serine/threonine-protein kinase PLK2 (Homo sapiens), sequence (Q9NYY3 whole entry, looked up, the tested form may be a part): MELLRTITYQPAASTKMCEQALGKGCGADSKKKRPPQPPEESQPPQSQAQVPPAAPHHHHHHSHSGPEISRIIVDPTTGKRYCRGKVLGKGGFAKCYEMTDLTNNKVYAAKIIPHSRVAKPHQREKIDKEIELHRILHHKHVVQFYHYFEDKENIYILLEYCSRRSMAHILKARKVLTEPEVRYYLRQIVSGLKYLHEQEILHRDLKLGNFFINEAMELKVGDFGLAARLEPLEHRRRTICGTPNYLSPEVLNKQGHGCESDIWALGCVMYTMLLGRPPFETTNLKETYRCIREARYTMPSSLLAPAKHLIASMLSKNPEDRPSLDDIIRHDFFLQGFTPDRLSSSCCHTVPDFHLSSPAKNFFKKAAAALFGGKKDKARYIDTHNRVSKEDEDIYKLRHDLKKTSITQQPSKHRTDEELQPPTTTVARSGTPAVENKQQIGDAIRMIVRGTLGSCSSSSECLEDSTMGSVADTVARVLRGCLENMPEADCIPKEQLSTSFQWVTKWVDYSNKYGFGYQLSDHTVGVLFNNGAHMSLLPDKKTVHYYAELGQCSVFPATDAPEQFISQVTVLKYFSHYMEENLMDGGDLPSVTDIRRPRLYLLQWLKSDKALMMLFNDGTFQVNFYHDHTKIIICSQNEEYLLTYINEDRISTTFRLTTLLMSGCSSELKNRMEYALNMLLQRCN

As for `CC(=O)n1cc(CCNC(=O)CCCCCN2CC(=O)N[C@@H](CC(C)C)C(=O)N[C@@H](Cc3c[nH]cn3)C(=O)N[C@@H](CO)C(=O)N[C@@H]([C@@H](C)OP(=O)(O)O)C(=O)N[C@@H](C(N)=O)CSCC2=O)c2ccccc21`, the inhibition result in assay [1] and in assay [2] was “inactive” each time.

As to `CC(=O)n1cc(CCNC(=O)CCCCCN2CC(=O)N[C@@H](CC(C)C)C(=O)N[C@@H](Cc3cncn3CCCCCCCCc3ccccc3)C(=O)N[C@@H](CO)C(=O)N[C@@H]([C@@H](C)OP(=O)(O)O)C(=O)N[C@@H](C(N)=O)CSCC2=O)c2ccccc21`, the inhibition result in assay [1] and in assay [2] was “inactive” each time.

`CC(=O)n1cc(CCNC(=O)CCCCN2CC(=O)N[C@@H](CC(C)C)C(=O)N[C@@H](Cc3c[nH]cn3)C(=O)N[C@@H](CO)C(=O)N[C@@H]([C@@H](C)OP(=O)(O)O)C(=O)N[C@@H](C(N)=O)CSCC2=O)c2ccccc21`: in assay [3], the inhibition result was “Active”.

Take `CC(=O)n1cc(CCNC(=O)CCN2CC(=O)N[C@@H](CC(C)C)C(=O)N[C@@H](Cc3c[nH]cn3)C(=O)N[C@@H](CO)C(=O)N[C@@H]([C@@H](C)OP(=O)(O)O)C(=O)N[C@@H](C(N)=O)CSCC2=O)c2ccccc21`: the inhibition entry in assay [3] is “Active”.
